Where two headings read alike, the source gives them in different places.
Columns and labels:
SARS-CoV-2 [1] = settings: known values of FDA approved drugs; cited from earlier work
VeroE6-EGFP cells = settings: no virus
[2] = target: ACE2 binding to SARS-CoV-2 S1-RBD (Homo sapiens, UniProt Q9BYF1); test: ELISA of ACE2/S1-RBD inhibitory activity; set-up: species or system human ACE2 / SARS-CoV-2; settings: recombinant 2019-nCoV S1-RBD coated plate, read-out: IC50 inhibiting ACE2 binding to SARS-CoV-2 S1-RBD
Chain of ACE2 binding to SARS-CoV-2 S1-RBD (Q9BYF1 18-740): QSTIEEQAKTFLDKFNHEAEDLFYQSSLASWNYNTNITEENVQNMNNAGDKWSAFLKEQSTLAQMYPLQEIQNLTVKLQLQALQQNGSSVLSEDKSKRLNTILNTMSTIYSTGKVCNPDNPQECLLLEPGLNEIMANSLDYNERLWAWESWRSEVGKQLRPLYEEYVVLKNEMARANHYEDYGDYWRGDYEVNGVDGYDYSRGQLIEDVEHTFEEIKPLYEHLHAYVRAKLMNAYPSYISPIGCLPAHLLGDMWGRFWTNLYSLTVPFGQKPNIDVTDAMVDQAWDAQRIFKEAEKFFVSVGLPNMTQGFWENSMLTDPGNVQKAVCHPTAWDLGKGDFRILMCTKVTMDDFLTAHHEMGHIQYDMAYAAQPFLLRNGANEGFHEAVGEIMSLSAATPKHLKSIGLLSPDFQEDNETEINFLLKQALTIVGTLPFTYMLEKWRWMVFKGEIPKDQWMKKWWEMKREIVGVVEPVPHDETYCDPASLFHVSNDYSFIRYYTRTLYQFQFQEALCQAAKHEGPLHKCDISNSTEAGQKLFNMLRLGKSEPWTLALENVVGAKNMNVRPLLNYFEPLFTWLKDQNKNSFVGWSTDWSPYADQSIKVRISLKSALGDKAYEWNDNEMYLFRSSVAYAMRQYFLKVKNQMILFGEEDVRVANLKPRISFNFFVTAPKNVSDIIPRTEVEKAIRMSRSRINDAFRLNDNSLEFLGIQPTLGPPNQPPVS

SARS-CoV-2 [3] = format: cell-based

## CC(C)(C)NC(=O)[C@@H]1CN(Cc2cccnc2)CCN1C[C@@H](O)C[C@@H](Cc1ccccc1)C(=O)N[C@H]1c2ccccc2C[C@H]1O [Indinavir]
SARS-CoV-2 [1]
  EC50: 59.1 µM

## Nc1nc2c(ncn2CCC(CO)CO)c(=O)[nH]1 [Penciclovir]
SARS-CoV-2 [1]
  EC50: 96 µM

## Kobophenol A
VeroE6-EGFP cells
  CC50: > 100 µM
[2]
  IC50: 1.81 ± 0.04 µM
SARS-CoV-2 [3]
  EC50: 71.6 µM
